In one assay the test system is THP1 cells. Put plainly: IFN-β secretion in THP1 cell culture (5 h). To be noted: Homo sapiens, THP-1, 5 h. The class given is cell-based, human. The procedure: The ability of compounds to stimulate the secretion of interferon-beta from THP1 cells was measured using a human IFN-β AlphaLISA kit (Perkin Elmer, Cat. No. AL265F). The basic protocol is as follows:
A Labcyte Echo 550 acoustic dispenser was used to transfer 120 nL of compound dissolved in DMSO into the wells of an empty, sterile 384-well microplate, (Corning, Cat. No. 3712). THP1 cells (American Type Culture Collection, Cat. No. TIB202) previously frozen in Recovery Medium (Life Technologies, Cat. No. 12648-010) were thawed and immediately diluted 10-fold into 37° C. assay medium (RPMI 1640+L-Glutamine & phenol red, Life Technologies, Cat. No. 11875-085; 0.5% heat inactivated fetal bovine serum, Sigma Aldrich, Cat. No. F4135; 1 mM Sodium Pyruvate, Life Technologies, Cat. No. 11360-070; lx non-essential amino acids; Life Technologies, Cat. No. 11140-050). The cell viability and count was ascertained using a Beckman Coulter V-Cell XR cell counter. The cells suspension was centrifuged at 200×g for 5 min at RT. Cells were resuspended to a density of 0.8×10^6/mL in 37° C. assay medium. Subsequent liquid transfers were performed using either a Matrix electronic multichannel pipette or an Agilent Bravo Automated Liquid Handling Platform.
The assay was started by dispensing 40 μL of the previously prepared cell suspension into the wells of the plate containing compounds. After 5 h incubation at 37° C., 5% CO2 in a humidified atmosphere, the plate of cells and compounds was centrifuged at 200×g for 5 min at RT. From each well, 5 μL of supernatant was transferred into corresponding wells of a white 384-well plate (Perkin Elmer, Cat. No. 6005620). To these supernatant-containing wells was added 10 μL of 5× Anti-Analyte Acceptor beads (50 μg/mL of AlphaLISA HiBlock Buffer) and incubated for 30 min at RT while shaking on an orbital plate shaker. To each well was added 10 μL of 5× Biotinylated Antibody Anti-analyte (5 nM in AlphaLISA HiBlock Buffer) and incubated on an orbital plate shaker for 60 min at RT or overnight at 4° C. To each well was added 25 μL of 2× SA-Donor beads (80 μg/mL in AlphaLISA HiBlock Buffer) and incubated for 30-45 min at RT in the dark while shaking on an orbital plate shaker. The plate was then read on a Perkin Elmer Envision (λex=680 nm, λem=[…]). The percent effect of the AlphaLISA signal at each compound concentration was calculated based on 30 uM cGAMP positive controls and 0.3% DMSO negative controls. The plot of percent effect versus the log of compound concentration was fit with a 4-parameter concentration response equation to calculate EC50 values. The test compounds were tested at concentrations 30000, 10000, 3333, 1111, 370.4, 123.4, 41.2, 13.7, 4.6, and 1.5 nM with 0.3% residual DMSO.
Compounds of the disclosure were evaluated for IFN-β secretion in THP1 cell culture as described above. The following table tabulates the biological data for these compounds as percent activation relative to 2′3′-cGAMP at the 30 μM concentration.

The next assay deals with full-length HAQ STING (Homo sapiens (Human), UniProt Q86WV6, G230A/H232R/R293Q/R71H). Put plainly: 3H-cGAMP filtration binding assay (HAQ STING). To be noted: competition with tritiated cGAMP, HAQ STING membrane. The text has this: The ability of compounds to bind STING is quantified by the ability to compete with tritiated cGAMP ligand for human STING receptor membrane using a radioactive filter-binding assay. The binding assay employs STING receptor obtained from Hi-Five cell membranes overexpressing full-length HAQ STING prepared in-house and tritiated cGAMP ligand also purified in-house.
full-length HAQ STING, sequence (Q86WV6 other isoform, or with tags, fused parts or gaps, stated change not applied): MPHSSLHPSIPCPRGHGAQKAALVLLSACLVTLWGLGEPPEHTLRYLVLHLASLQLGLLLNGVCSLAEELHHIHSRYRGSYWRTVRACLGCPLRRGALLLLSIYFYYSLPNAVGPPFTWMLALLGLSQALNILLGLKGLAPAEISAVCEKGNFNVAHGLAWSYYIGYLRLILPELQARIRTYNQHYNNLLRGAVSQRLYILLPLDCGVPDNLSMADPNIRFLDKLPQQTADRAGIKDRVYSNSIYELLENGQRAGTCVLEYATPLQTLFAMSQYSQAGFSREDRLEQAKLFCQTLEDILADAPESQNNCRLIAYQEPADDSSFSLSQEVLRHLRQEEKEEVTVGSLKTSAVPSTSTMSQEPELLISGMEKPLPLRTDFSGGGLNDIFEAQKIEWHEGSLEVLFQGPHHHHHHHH
The ability of compounds to bind STING is quantified by their ability to compete with tritiated cGAMP ligand for human STING receptor membrane using a radioactive filter-binding assay. The binding assay employs STING receptor obtained from Trichoplusia ni cell membranes (Tni; Expression Systems, cat #94-002F, www.exrpressionsystems.com) overexpressing full-length HAQ STING prepared in-house and tritiated cGAMP ligand also purified in-house.
The basic HAQ STING filtration assay protocol is as follows:
Compound and membrane then preincubated for 60 min at RT to allow compound binding to equilibrate. Following equilibration, 8 nM of [^3H] c-GAMP ligand was prepared by diluting into assay buffer, and 50 uL of this working stock was then manually added to each well of the assay plate. […] The filter plates were then dried at 55° C. for 30 min using a pressurized VWR oven before 30 uL of Ultima GoldF scintillate was added to each well. Tritium levels for each reaction well were then measured using a PerkinElmer TopCount plate reader.
After normalization to controls, the percent activity for each compound concentration was calculated by measuring the amount of remaining radioactivity. The plot of percent activity versus the log of compound concentration was fit with a 4-parameter dose response equation to calculate EC50 values.

[1] abbreviates: IFN-β secretion, THP1 cells, 5 h, 30 μM, read-out: % Effect at 30 μM relative to 2′3′-cGAMP.

Each structure is given as a SMILES string. Read-outs that look alike come from different tables or passages of the source.

As for `[N-]=[N+]=N[C@H]1[C@H]2OP(O)(=S)OC[C@H]3O[C@@H](n4cnc5c(=O)[nH]c(N)nc54)[C@H](OP(O)(=S)OC[C@H]1O[C@H]2n1cnc2c(N)ncnc21)[C@@H]3F` (single isomer, unassigned) [Example 18], in the assay on THP1 cells (read-out: % Effect at 30 μM relative to 2′3′-cGAMP, IFN-β secretion, THP1 cells, 5 h, 30 μM), the activation at 30 µM was found to be 118%. Turning to `Nc1nc2c(ncn2[C@@H]2O[C@@H]3COP(=O)(S)O[C@@H]4[C@H](O)[C@@H](COP(=O)(S)O[C@@H]2[C@@H]3O)O[C@H]4n2cnc3c(=O)[nH]c(N)nc32)c(=O)[nH]1` (single isomer, unassigned) [Example 25], in the assay on THP1 cells (setting [1]), the activation at 30 µM was 89%.

Regarding `Nc1nc2c(ncn2[C@@H]2O[C@@H]3COP(=O)(S)OC4C(O)[C@@H](COP(=O)(S)OC2[C@@H]3O)O[C@H]4n2cnc3c(N)ncnc32)c(=O)[nH]1` (stereo in doubt) [Example 15, 2-amino-9-[(1R,6R,8R,9R,14R,16R,17R,18R)-16-(6-amino-9H-purin-9-yl)-17,18-dihydroxy-3,11-dioxido-3,11-disulfanyl-2,4,7,10,12,15-hexaoxa-3,11-diphosphatricyclo[12.2.1.1^6,9]octadec-8-yl]-1,9-dihydro-6H-purin-6-one], in the assay on THP1 cells (setting [1]), the activation at 30 µM was 132%. With `Nc1nc2c(ncn2[C@@H]2O[C@@H]3COP(=O)(O)O[C@@H]4C[C@@H](COP(=O)(O)O[C@@H]2[C@@H]3O)O[C@H]4n2cnc3c(N)ncnc32)c(=O)[nH]1` [Example 1, 2-amino-9-[(1R,6R,8R,9R,14S,16R,18R)-16-(6-amino-9H-purin-9-yl)-3,11,18-trihydroxy-3,11-dioxido-2,4,7,10,12,15-hexaoxa-3,11-diphosphatricyclo[12.2.1.1^6,9]octadec-8-yl]-1,9-dihydro-6H-purin-6-one], it took 19 nM to reach a half-maximal effect at full-length HAQ STING (EC50). Moreover, the activation at 30 µM in the assay on THP1 cells (setting [1]) came out at 121%. With `Nc1nc2c(ncn2[C@@H]2O[C@@H]3COP(=O)(O)O[C@@H]4[C@H](O)[C@@H](COP(=O)(O)O[C@@H]2C3)O[C@H]4n2cnc3c(N)ncnc32)c(=O)[nH]1` [Example 2, 2-amino-9-[(1R,6S,8R,9R,14R,16R,17R)-16-(6-amino-9H-purin-9-yl)-3,11,17-trihydroxy-3,11-dioxido-2,4,7,10,12,15-hexaoxa-3,11-diphosphatricyclo[12.2.1.1^6,9]octadec-8-yl]-1,9-dihydro-6H-purin-6-one], it took 18.2 nM to reach a half-maximal effect at full-length HAQ STING (EC50). In the assay with THP1 cells (setting [1]), the activation at 30 µM was found to be 123%. Take `Nc1nc2c(ncn2[C@@H]2O[C@@H]3COP(=O)(O)O[C@@H]4[C@H](F)[C@@H](COP(=O)(O)O[C@@H]2C3)O[C@H]4n2cnc3c(N)ncnc32)c(=O)[nH]1` [Example 10, 2-amino-9-[(1S,6S,8R,9R,14R,16R,17R)-16-(6-amino-9H-purin-9-yl)-17-fluoro-3,11-dihydroxy-3,11-dioxido-2,4,7,10,12,15-hexaoxa-3,11-diphosphatricyclo[12.2.1.1^6,9]octadec-8-yl]-1,9-dihydro-6H-purin-6-one]: the activation at 30 µM in the assay on THP1 cells (setting [1]) was determined as 87%. Still for that read-out and setting: for `Nc1nc2c(ncn2[C@@H]2O[C@@H]3COP(=O)(S)O[C@@H]4[C@H](O)[C@@H](COP(=O)(S)O[C@@H]2[C@@H]3O)O[C@H]4n2cnc3c(N)ncnc32)c(=O)[nH]1` (stereo partly drawn) [Example 14, 2-amino-9-[(1R,6R,8R,9R,14R,16R,17R,18R)-16-(6-amino-9H-purin-9-yl)-17,18-dihydroxy-3,11-dioxido-3,11-disulfanyl-2,4,7,10,12,15-hexaoxa-3,11-diphosphatricyclo[12.2.1.1^6,9]octadec-8-yl]-1,9-dihydro-6H-purin-6-one] the value was 150%. Consider `Nc1nc2c(ncn2[C@@H]2O[C@@H]3COP(=O)(O)O[C@@H]4[C@H](O)[C@@H](COP(=O)(O)O[C@@H]2[C@@H]3N)O[C@H]4n2cnc3c(N)ncnc32)c(=O)[nH]1` [Example 32, 2-amino-9-[(1R,6S,8R,9R,14R,16R,17R,18R)-18-amino-16-(6-amino-9H-purin-9-yl)-3,11,17-trihydroxy-3,11-dioxido-2,4,7,10,12,15-hexaoxa-3,11-diphosphatricyclo[12.2.1.1^6,9]octadec-8-yl]-1,9-dihydro-6H-purin-6-one], for which the EC50 (as a rule, the concentration that produces a half-maximal response) on full-length HAQ STING worked out at 1.9 nM. In other words, the single-digit nanomolar range.

The record behind these values is patent US10738074B2, “Cyclic di-nucleotide compounds as STING agonists” (Merck Sharp & Dohme Corp., priority 2015, dated 2020).
